From a melting point compilation (Tetko et al.; mined from patent text by program, amines drawn as free bases though some values may be those of a salt)

Row | Structure (SMILES) | melting point [°C]
1 | Cc1cccc(-c2ccc3c(c2)c(C(=O)C(=O)NCC(=O)O)cn3Cc2ccc(C(C)(C)C)cc2)c1 | 108 to 109
2 | CCOC(=O)C(C)NC(=O)CN(C(=O)c1ccc(Cl)cc1)c1c(C)cccc1C (stereo unspecified) | 91 to 92
3 | O=C1CCNc2cc(Cl)c(F)cc21 | 192 to 194
4 | O=C1C2=C(CCCC2)C(=O)N1c1cc(OC2CCCCC2)c(Cl)cc1F | 102 to 103
5 | COc1ccc(C(O)c2ccccc2OC)cn1 (stereo unspecified) | 83 to 84
6 | COc1cc2c(Nc3ccc(Cl)cc3F)ncnc2cc1OCCN1C(=O)CCCC1=O | 202 to 203
7 | CC1=C(C(=O)CS(=O)(=O)NC(C)C)C(c2cccc([N+](=O)[O-])c2)C(C(=O)OC(C)C)=C(C)N1C (stereo unspecified) | 67 to 69
8 | COC1(OC)CCC(O)(c2ccc(C)cc2)CC1 | 93 to 97
9 | COC(=S)Nc1ccc(OCc2nc3ccccc3s2)cc1 | 160 to 162
10 | Cc1nccn1-c1ccc(Sc2cccc(C3(C(N)=O)CCOCC3)c2)cc1 | 184 to 185
11 | Nc1c(S(=O)(=O)C(F)(F)F)c(-c2ncon2)nn1-c1c(Cl)cc(C(F)(F)F)cc1Cl | 205 to 208
12 | CSc1nc(C)n(-c2ccc(N)cc2)n1 | 130 to 136
13 | CCCCN(CCCC)C(=O)NCCc1ccc(-c2csc(N)n2)cc1 | 42 to 43
14 | CC1CN(c2cccc(C(F)(F)F)c2)N=C1NC(=O)C(F)(F)F (stereo unspecified) | 121 to 122
15 | CC12C=CC(=O)C=C1C(N)CC1C2CCC2(C)C(=O)CCC12 (stereo unspecified) | 186 to 191
16 | CSc1cnc2cc(-c3ccccc3Cl)sc2c1O | 270 to 273
17 | C=C(Br)Cc1cc2c(C)cc(=O)oc2c(C)c1O | 154 to 161
18 | Cc1cc(C)cc(Sc2c(C(C)C)c(=O)[nH]c(=O)n2CC#Cc2ccccc2)c1 | 113 to 115
19 | CNC(=O)ON=C(C(=O)N(C)C)C(C)=NOC | 172 to 173
20 | CC1(C)CCC(C)(C)c2cc(C(=O)Nc3ccc(OCCN4CCOCC4)cc3)ccc21 | 134 to 136
21 | O=c1c(CCl)cc2cc([N+](=O)[O-])ccc2n1-c1ccccc1 | 152 to 154
22 | CN(C)CCc1c[nH]c2ccc([N+](=O)[O-])cc12 | 132 to 135
23 | COc1c(Cl)ccc2c1C(O)(c1ccccc1Cl)C(=O)N2 (stereo unspecified) | 228 to 229

Row | Structure (SMILES) | melting point [°C]
24 | O=c1c(Cc2ccccc2)c(-c2ccccc2)oc2cc(OCC3CO3)ccc12 (stereo unspecified) | 133 to 138
25 | CCOC(=O)C(NC(=O)CCNC(=O)CO)C(=O)OCC | 94.5 to 96
26 | NC(=O)[C@@H]1[C@H](Nc2c(Br)cnc3[nH]c(-c4cccnc4N4CCOCC4)nc23)[C@H]2C=C[C@@H]1C2 | 150
27 | CCCCc1nc(N)c(N)c(=O)[nH]1 | 160 to 165
28 | CCN1C(=O)C(C)(C)C(=O)N(C)c2cc(CN(CCn3ccc4oc(C)cc4c3=O)Cc3nc4ccccc4n3C)ccc21 | 127 to 133
29 | CN1CC(CCNC(=S)NC(=O)c2ccccc2)CC2c3cccc4[nH]cc(c34)CC21 (stereo unspecified) | 205 to 207
30 | O=C(CCCCCCNC(=O)C(=O)c1cn2c3c(cccc13)CCC2)NOC1CCCCO1 (stereo unspecified) | 140 to 142
31 | CCOC(=O)C1=C(C)Nc2nc(N3CCOCC3)nc(N3CCOCC3)c2C1c1ccc(Cl)cc1 (stereo unspecified) | 128
32 | COc1ccnc(OC)c1CON=C(C)c1cc(C)cc(C)n1 | 114 to 116
33 | CC(=O)OCCN1C(=O)N2CCOC2(c2ccccc2)c2cc(Cl)ccc21 (stereo unspecified) | 121 to 123
34 | COC(=O)C1CC(c2ccc(OC)c(OC)c2)=NO1 (stereo unspecified) | 106 to 108
35 | CC(C)Oc1cc(COc2ccc(C(F)(F)F)cc2)cc(COc2cc(CCC(=O)O)n(-c3ccccc3)n2)c1 | 55 to 58
36 | S=c1[nH]c2c(n1-c1ccccn1)CCCC2 | 203 to 204
37 | CN1C(=O)C(Br)=C(c2cn(C(=O)OC(C)(C)C)c3ccc(OCc4ccccc4)cc23)C1=O | 155
38 | CC(C)Cc1nc(Cc2ccccc2)c2c(c1O)COC2 | 174 to 175
39 | COC1OCC[C@@H]1NC(=O)[C@H](CC(C)C)NC(=O)OCc1ccccc1 (stereo partly specified) | 112 to 113
40 | FCc1cccc(C#CCCn2cc(-c3ccc(F)cc3)nn2)n1 | 100 to 103
41 | COc1ccc(CCCN2C(=O)c3ccccc3C2=O)cc1OC | 82 to 85
42 | Cc1cc(CSCCNC(=C[N+](=O)[O-])NCCc2cccc(O)c2)sc1CN(C)C | 114 to 115
43 | CC(C)Cc1ccc(C(C)C(=O)Oc2ccc(C(N)=S)cc2)cc1 (stereo unspecified) | 121 to 123
44 | NC(=O)c1[nH]c2ccc(Cl)cc2c1S(=O)(=O)c1ccccn1 | 244 to 246
45 | COC(=O)c1cc(-c2nc(COc3ccc(COc4nn(-c5ccccc5)cc4C=O)cc3OC)c(C)o2)ccc1OS(C)(=O)=O | 136 to 137

Second part, the compound after the results:

Row | melting point [°C] | Structure (SMILES)
46 | 173 to 174 | CC1OC(=S)Nc2ccc(-c3cccc(F)c3)cc21 (stereo unspecified)
47 | 81 to 83 | CC(=O)c1cnc([N+](=O)[O-])n1C
48 | 144 to 147 | COC(=O)C(OC)C(=S)Nc1cc(Cl)cc(Cl)c1 (stereo unspecified)
49 | 202 to 204 | COc1ccc(S(=O)(=O)N(Cc2cccnc2)c2c(C(=O)NO)cnc3c2c(C)nn3C)cc1
50 | 94 | O=Cc1c(O)cccc1OCCCCC(=O)O
51 | 110 to 113 | CON=C(C(=O)O)c1csnn1
52 | 185 to 186 | O=C(C1CCCC1)N1C=C2c3ccccc3C3CC2(C1)c1ccccc13 (stereo unspecified)
53 | 207 | CC(C)(C(=O)O)c1cc(C(=O)c2ccccc2)ccc1O
54 | 239 | COC(=O)c1ccc(NC(=O)C(F)(F)F)c(C(=O)OC)c1
55 | 40 to 44 | Clc1ccc2nc(Cl)oc2c1
56 | 125 to 135 | COc1cc(C(=O)O)ccc1Cc1c(Cl)n(C)c2cc(Cl)c(CC(C)NC(=O)N(C)C)cc12 (stereo unspecified)
57 | 132 to 134 | Cn1c2c(c3ccccc31)CCN1C(=O)CCC21C (stereo unspecified)
58 | 101 to 103 | C#CC[C@H](c1nc2cc(Cl)ccc2c(=O)n1Nc1ccccc1)N(CCCN)C(=O)c1cccc(Cl)c1F
59 | 126 | Clc1ccccc1-c1nn2cc(-c3ccccc3)nc2s1
60 | 199 | COc1cc2c(cc1OC)CN(CCCSc1ccc(NC(=O)c3cccc4c(=O)c5cccc(OC)c5[nH]c34)cc1)CC2
61 | 98 to 100 | CCOC(=O)c1cn(C2CC2)c2c(F)c(C(C#N)C(=O)OCC)c(F)c(F)c2c1=O (stereo unspecified)
62 | 92 to 93 | COCC(=O)Nc1cccc(C2(c3ccncc3)N=C(N)N(C)C2=O)c1 (stereo unspecified)
63 | 262 to 268 | CCOC(=O)c1sc2[nH]c(=O)ccc2c1Br
64 | 218 | CC(C)(C)C1=NN(c2ccc(C(=O)O)cc2)C(c2cccc(F)c2)C1 (stereo unspecified)

Row | melting point [°C] | Structure (SMILES)
65 | 166 to 170 | CC(C)c1ccc(NC(=O)Oc2ccc3c(c2)CCN3)cc1
66 | 112 | CN(Cc1ccc(C=CC(=O)O)cc1)S(=O)(=O)c1ccccc1
67 | 155 | COc1ccc(SC(C(=O)NO)c2ccccc2)cc1 (stereo unspecified)
68 | 75 to 87 | CNC(=O)C1(Nc2nc(Nc3cc4c(cc3OC)CCN(CC(=O)N(C)C)CC4)ncc2Cl)CCCC1
69 | 131 to 134 | C#CCN1CC(=O)N(c2cc(Cl)ccc2C)C1=S
70 | 135 to 145 | CC(=O)C(C)OC(=O)CC[C@H]1NC(=O)[C@@H]1N1C(=O)c2ccccc2C1=O (stereo partly specified)
71 | 158 to 160 | NS(=O)(=O)c1cc2c(s1)S(=O)(=O)C(CCO)CN2 (stereo unspecified)
72 | 215 to 218 | O=C(NCCCCN1CCN(C(c2ccccc2)c2ccccc2)CC1)c1cnc2cccc(O)c2c1O
73 | 82 to 85 | COC(=O)[C@@]1(c2ccc(Br)cc2)CC1(c1ccccc1)c1ccccc1
74 | 169 | Clc1ccc(Cl)c(CN2CCNc3ncc(I)cc32)c1
75 | 123 to 125 | CC(=O)N(O)C(C)c1csc2ccccc12 (stereo unspecified)
76 | 148 | Cc1cc(Cc2cc(C(C)(C)CC(C)(C)C)cc(-n3nc4ccccc4n3)c2O)c(O)c(C(C)(C)C)c1
77 | 115 to 116 | COC(=O)c1ccc(Oc2cc3c(cc2C(C)C)C(C)(C)CCC3(C)C)cc1
78 | 42 to 43 | CCCCCCCC(=O)OCCCCCCOc1ccc(Nc2ccccc2)cc1
79 | 200 to 201 | CN(c1c(Cl)ccc2cc(C(N)=S)[nH]c12)S(=O)(=O)c1cccs1
80 | 76 to 83 | O=C(O)c1cc(F)cc(C(F)(F)F)c1O
81 | 315 to 316 | COc1cc(Nc2c(C#N)cnc3cc(/C=C/n4nccn4)sc23)c(Cl)cc1Cl
82 | 121 to 124 | CCOP(=O)(CC(=O)Nc1cc2c(Nc3ccc(Cl)c(Cl)c3)ncnc2cn1)OCC
83 | 61 to 62 | Cc1ccc(CN2CCN(C(=O)OC(C)(C)C)CC2)cc1

Row | melting point [°C] | Structure (SMILES)
84 | 120 | CC(C)(C)OC(=O)C1CSC(c2cccc(F)c2F)N1 (mixture of isomers)
85 | 109 to 110 | CSC(=S)OC(C(=O)O)c1ccccc1 (stereo unspecified)
86 | 120 to 123 | NCCNC(=O)c1ccc2c(c1)OCO2
87 | 82 to 83 | CCCc1sc2nc(CN(CC)CC)c(C(=O)OCC)c(-c3ccc(Cl)cc3)c2c1C
88 | 213 to 215 | O=C(O)Cc1cc(=O)[nH]c2ccccc12
89 | 206 to 207 | NC(=O)c1cc(-c2ccc(F)cc2)ccc1O
90 | 93 to 94 | Cc1oc2c(C=Cc3c(Cl)cccc3Cl)cccc2c1C
91 | 146 to 150 | CC12CCC3c4ccc(C(=O)O)cc4CCC3C1CCC2C(=O)Cc1ccccc1 (stereo unspecified)
92 | 119 | O=S(=O)(c1ccc(Cl)cc1)N1CCCC1c1ccccc1 (racemic)
93 | 148 to 150 | CCCCCCCCCCCCCCc1c[nH]c(C(=O)O)c1
94 | 192 to 194 | O=C(Cc1ccccn1)c1ccccc1[NH+]([O-])C(=O)c1ccccc1 (stereo unspecified)
95 | 97.5 to 99 | CCCCCS(=O)(=O)NC(=O)OCCCc1ccc(OCCOC)cc1Oc1ncc(C(F)(F)F)cc1Cl
96 | 185 to 187 | CCCCCCCCC(=O)NCc1ccc(C#N)cc1
97 | 217 to 218 | Cc1csc(Cc2ccc(NC(=O)/C=C/c3cnn(C)c3-c3ccc(F)cc3)cc2)n1
98 | 208 to 210 | COc1ccc(CNc2ccc(C(=O)O)cc2)cc1
99 | 253 to 255 | Nc1nc(-c2ccc(Cl)cc2C(=O)c2ccccc2)c(CN2C(=O)c3ccccc3C2=O)s1
100 | 142 to 143 | CC(=N)NC=Cc1ccc([N+](=O)[O-])cc1
101 | 140 to 145 | O=C(O)c1cc(C(F)(F)F)ccc1Sc1ccccc1
